Source: PubChem BioAssay AID256 (DTP/NCI, 2004)
Several values for one entry are separate records, joined by “and”; a condition that tells them apart may be missing. Equal entries are not always repeated. Inconclusive results and toxic doses are left out.

Test system: CD2F1 mice, L1210 leukemia ip, survival T/C
Assay: NCI In Vivo Anticancer Drug Screen. Data for tumor model L1210 Leukemia (intraperitoneal) in CD2F1 (CDF1) mice
Details: higher = longer survival
Procedure, shortened: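 Mice carrying a transplanted tumor received test compound or vehicle alone. The value is the measurement in the treated group divided by that in the vehicle-treated control group.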

**Q.** For CC(=O)OC1COC(n2cnc(C#N)c2C#N)C(OC(C)=O)C1OC(C)=O (stereo unspecified), which T/C (endpoint: mean survival time, dose: 12.5 mg/kg/injection, schedule: Q01DX005 (ip), vehicle: distilled water + Tween-80) is on record?
**A.** Its T/C is 101 % of control and 98 % of control.

**Q.** What about the T/C (endpoint: mean survival time, dose: 25.0 mg/kg/injection, schedule: Q01DX005 (ip), vehicle: distilled water + Tween-80) of the same compound?
**A.** The T/C was 95 % of control and 103 % of control.

**Q.** And the T/C (endpoint: mean survival time, dose: 50.0 mg/kg/injection, schedule: Q01DX005 (ip), vehicle: distilled water + Tween-80)?
**A.** The T/C was 93 % of control and 101 % of control.

**Q.** What about the T/C (endpoint: mean survival time, dose: 100.0 mg/kg/injection, schedule: Q01DX005 (ip), vehicle: distilled water + Tween-80) of the same compound?
**A.** The T/C was 97 % of control.

**Q.** What about the T/C (endpoint: mean survival time, dose: 200.0 mg/kg/injection, schedule: Q01DX005 (ip), vehicle: distilled water + Tween-80) of the same compound?
**A.** Its T/C is 93 % of control and 104 % of control.

**Q.** Which T/C (endpoint: mean survival time, dose: 100.0 mg/kg/injection, schedule: Q04DX003 (ip), vehicle: saline) does the source give for Clc1nc2ccccc2[nH]1 here?
**A.** The T/C was 98 % of control.

**Q.** And the T/C (endpoint: mean survival time, dose: 200.0 mg/kg/injection, schedule: Q04DX003 (ip), vehicle: saline)?
**A.** The T/C was 100 % of control.

**Q.** And the T/C (endpoint: mean survival time, dose: 400.0 mg/kg/injection, schedule: Q04DX003 (ip), vehicle: saline)?
**A.** Its T/C is 90 % of control.

**Q.** CC(C)(O)C(=O)O was tested. Which T/C (endpoint: mean survival time, dose: 50.0 mg/kg/injection, schedule: Q01DX009 (ip), vehicle: saline) did it give?
**A.** The T/C was 96 % of control.

**Q.** What about the T/C (endpoint: mean survival time, dose: 100.0 mg/kg/injection, schedule: Q01DX009 (ip), vehicle: saline) of the same compound?
**A.** The T/C was 93 % of control.

**Q.** What about the T/C (endpoint: mean survival time, dose: 200.0 mg/kg/injection, schedule: Q01DX009 (ip), vehicle: saline) of the same compound?
**A.** The T/C was 86 % of control.

**Q.** What does the source list for NC(=S)c1c2ccccc2nn1C1OC(CO)C(O)C1O (stereo unspecified)?
**A.** T/C (endpoint: mean survival time, dose: 100.0 mg/kg/injection, schedule: Q01DX005 (ip), vehicle: saline): 98 % of control; T/C (endpoint: mean survival time, dose: 200.0 mg/kg/injection, schedule: Q01DX005 (ip), vehicle: saline): 101 % of control

**Q.** C1CSC(=[N+]2CC[N+](=C3SCCS3)CC2)S1 was tested. Which T/C (endpoint: mean survival time, dose: 12.5 mg/kg/injection, schedule: Q01DX009 (ip), vehicle: saline) did it give?
**A.** The T/C was 101 % of control.

**Q.** What about the T/C (endpoint: mean survival time, dose: 25.0 mg/kg/injection, schedule: Q01DX009 (ip), vehicle: saline) of the same compound?
**A.** Its T/C is 104 % of control.

**Q.** And the T/C (endpoint: mean survival time, dose: 25.0 mg/kg/injection, schedule: Q04DX002 (ip), vehicle: saline)?
**A.** Its T/C is 100 % of control.

**Q.** What about the T/C (endpoint: mean survival time, dose: 50.0 mg/kg/injection, schedule: Q04DX002 (ip), vehicle: saline) of the same compound?
**A.** The T/C was 88 % of control.

**Q.** What does the source list for O=C(Nc1c(Cl)cccc1Cl)Oc1ccc(Br)cc1?
**A.** T/C (endpoint: mean survival time, dose: 50.0 mg/kg/injection, schedule: Q01DX009 (ip), vehicle: saline with Tween-80): 103 % of control; T/C (endpoint: mean survival time, dose: 100.0 mg/kg/injection, schedule: Q01DX009 (ip), vehicle: saline with Tween-80): 103 % of control

**Q.** With ClC(c1ccccc1)C(Cl)c1ccccc1 (stereo unspecified) as the compound, how does the T/C (endpoint: mean survival time, dose: 3.13 mg/kg/injection, schedule: Q01DX009 (ip), vehicle: saline with Tween-80) read?
**A.** The T/C was 102 % of control.

**Q.** What about the T/C (endpoint: mean survival time, dose: 6.25 mg/kg/injection, schedule: Q01DX009 (ip), vehicle: saline with Tween-80) of the same compound?
**A.** Its T/C is 102 % of control.

**Q.** What about the T/C (endpoint: mean survival time, dose: 12.5 mg/kg/injection, schedule: Q01DX009 (ip), vehicle: saline with Tween-80) of the same compound?
**A.** The T/C was 91 % of control and 95 % of control.

**Q.** Which results are given for O=C(CCN1CC1)Nc1cccc(NC(=O)CCN2CC2)c1?
**A.** T/C (endpoint: mean survival time, dose: 2.5 mg/kg/injection, schedule: Q01DX009 (ip), vehicle: Klucel (hydroxypropylcellulose) (HPC)): 118 % of control; T/C (endpoint: mean survival time, dose: 4.0 mg/kg/injection, schedule: Q01DX009 (ip), vehicle: Klucel (hydroxypropylcellulose) (HPC)): 112 % of control; T/C (endpoint: mean survival time, dose: 10.0 mg/kg/injection, schedule: Q01DX009 (ip), vehicle: Klucel (hydroxypropylcellulose) (HPC)): 156 % of control and 165 % of control; T/C (endpoint: mean survival time, dose: 15.0 mg/kg/injection, schedule: Q01DX009 (ip), vehicle: Klucel (hydroxypropylcellulose) (HPC)): 108 % of control; T/C (endpoint: mean survival time, dose: 20.0 mg/kg/injection, schedule: Q01DX009 (ip), vehicle: Klucel (hydroxypropylcellulose) (HPC)): 96 % of control and 104 % of control

**Q.** With CC(=O)Nc1nc2nccn2c(=O)[nH]1 as the compound, how does the T/C (endpoint: median survival time, dose: 50.0 mg/kg/injection, schedule: Q01DX005 (ip), vehicle: saline) read?
**A.** The T/C was 101 % of control.

**Q.** And the T/C (endpoint: median survival time, dose: 100.0 mg/kg/injection, schedule: Q01DX005 (ip), vehicle: saline)?
**A.** Its T/C is 100 % of control.

**Q.** What about the T/C (endpoint: median survival time, dose: 200.0 mg/kg/injection, schedule: Q01DX005 (ip), vehicle: saline) of the same compound?
**A.** The T/C was 101 % of control.

**Q.** With O=C(Nc1ccc([N+](=O)[O-])cc1)OCC#CC#CCOC(=O)Nc1ccc([N+](=O)[O-])cc1 as the compound, how does the T/C (endpoint: mean survival time, dose: 100.0 mg/kg/injection, schedule: Q04DX003 (ip), vehicle: Klucel (hydroxypropylcellulose) (HPC)) read?
**A.** The T/C was 94 % of control.

**Q.** And the T/C (endpoint: mean survival time, dose: 200.0 mg/kg/injection, schedule: Q04DX003 (ip), vehicle: Klucel (hydroxypropylcellulose) (HPC))?
**A.** The T/C was 94 % of control.

**Q.** How did the T/C (endpoint: mean survival time, dose: 100.0 mg/kg/injection, schedule: Q04DX002 (ip), vehicle: saline with Tween-80) turn out when CCOC(=O)c1c(C)c2c(n1C)CC/C(=C\N1CCN(c3ccccc3)CC1)C2=O was run?
**A.** The T/C was 93 % of control.

**Q.** What about the T/C (endpoint: mean survival time, dose: 200.0 mg/kg/injection, schedule: Q04DX002 (ip), vehicle: saline with Tween-80) of the same compound?
**A.** Its T/C is 89 % of control.

**Q.** And the T/C (endpoint: mean survival time, dose: 400.0 mg/kg/injection, schedule: Q04DX002 (ip), vehicle: saline with Tween-80)?
**A.** Its T/C is 86 % of control.

**Q.** How did the T/C (endpoint: mean survival time, dose: 12.5 mg/kg/injection, schedule: Q01DX009 (ip), vehicle: water) turn out when COc1ccc(CCNCCc2ccc(OC)c(OC)c2)cc1OC was run?
**A.** Its T/C is 95 % of control.

**Q.** What about the T/C (endpoint: mean survival time, dose: 25.0 mg/kg/injection, schedule: Q01DX009 (ip), vehicle: water) of the same compound?
**A.** Its T/C is 100 % of control.

**Q.** And the T/C (endpoint: mean survival time, dose: 50.0 mg/kg/injection, schedule: Q01DX009 (ip), vehicle: water)?
**A.** Its T/C is 102 % of control.

**Q.** What about the T/C (endpoint: mean survival time, dose: 100.0 mg/kg/injection, schedule: Q01DX009 (ip), vehicle: water) of the same compound?
**A.** The T/C was 104 % of control.

**Q.** For CCOC(=O)/C(=C/[N-]c1ccccc1[N-]/C=C(\C(C)=O)C(=O)OCC)C(C)=O.[Pt+2], which T/C (endpoint: median survival time, dose: 10.0 mg/kg/injection, schedule: Q04DX003 (ip), vehicle: saline with Tween-80) is on record?
**A.** The T/C was 98 % of control.

**Q.** And the T/C (endpoint: median survival time, dose: 20.0 mg/kg/injection, schedule: Q04DX003 (ip), vehicle: saline with Tween-80)?
**A.** Its T/C is 96 % of control.

**Q.** And the T/C (endpoint: median survival time, dose: 40.0 mg/kg/injection, schedule: Q04DX003 (ip), vehicle: saline with Tween-80)?
**A.** The T/C was 89 % of control.

**Q.** What about the T/C (endpoint: median survival time, dose: 50.0 mg/kg/injection, schedule: Q04DX003 (ip), vehicle: saline with Tween-80) of the same compound?
**A.** The T/C was 96 % of control.

**Q.** And the T/C (endpoint: median survival time, dose: 80.0 mg/kg/injection, schedule: Q04DX003 (ip), vehicle: saline with Tween-80)?
**A.** Its T/C is 101 % of control.

**Q.** And the T/C (endpoint: median survival time, dose: 100.0 mg/kg/injection, schedule: Q04DX003 (ip), vehicle: saline with Tween-80)?
**A.** Its T/C is 97 % of control.

**Q.** What about the T/C (endpoint: median survival time, dose: 200.0 mg/kg/injection, schedule: Q04DX003 (ip), vehicle: saline with Tween-80) of the same compound?
**A.** The T/C was 101 % of control.
